Measurements taken from ChEMBL document CHEMBL3046926, “Molecular properties prediction, synthesis, and diuretic activity of phenoxy acetic acid bearing pyrazolines” (2013).

What was measured:
Rattus norvegicus [1] = assay: Induction of diuresis activity in Rattus norvegicus albino (rat) assessed as urinary excretion at 1000 mg/kg, po measured at 5-18 hr after drug administration by standard Lipschitz method against frusemide-treated control (reference value: 0.2 no unit); type: functional, Urine
Rattus norvegicus [2] = assay: Induction of diuresis action in Rattus norvegicus albino (rat) assessed as urinary excretion at 1000 mg/kg, po measured at 5-18 hr after drug administration by standard Lipschitz method against untreated control (reference value: 1 no unit); type: functional, Urine
Rattus norvegicus [3] = assay: Induction of diuresis activity in Rattus norvegicus albino (rat) assessed as urinary excretion at 1000 mg/kg, po measured at 0-5 hr after drug administration by standard Lipschitz method against frusemide-treated control (reference value: 0.5 no unit); type: functional, Urine
Rattus norvegicus [4] = assay: Induction of diuresis action in Rattus norvegicus albino (rat) assessed as urinary excretion at 1000 mg/kg, po measured at 0-5 hr after drug administration by standard Lipschitz method against untreated control (reference value: 1 no unit); type: functional, Urine
Rattus norvegicus [5] = assay: Induction of diuresis in Rattus norvegicus albino (rat) assessed as urinary Cl- excretion at 1000 mg/kg, po measured at 5-18 hr after drug administration by standard Lipschitz method (reference value: 0.38 +/-0.011 mEq/L); type: functional, Urine
Rattus norvegicus [6] = assay: Induction of diuresis in Rattus norvegicus albino (rat) assessed as urinary K+ excretion at 1000 mg/kg, po measured at 5-18 hr after drug administration by standard Lipschitz method (reference value: 0.22 +/-0.004 mEq/L); type: functional, Urine
Rattus norvegicus [7] = assay: Induction of diuresis in Rattus norvegicus albino (rat) assessed as urinary Na+ excretion at 1000 mg/kg, po measured at 5-18 hr after drug administration by standard Lipschitz method (reference value: 0.65 +/-0.006 mEq/L); type: functional, Urine
Rattus norvegicus [8] = assay: Induction of diuresis in Rattus norvegicus albino (rat) assessed as urinary Na+ excretion at 1000 mg/kg, po measured at 0-5 hr after drug administration by standard Lipschitz method (reference value: 0.90 +/-0.003 mEq/L); type: functional, Urine
Rattus norvegicus [9] = assay: Induction of diuresis in Rattus norvegicus albino (rat) assessed as urinary excretion at 1000 mg/kg, po measured at 5-18 hr after drug administration by standard Lipschitz method (reference value: 50.4%); type: functional, Urine
Rattus norvegicus [10] = assay: Induction of diuresis in Rattus norvegicus albino (rat) assessed as normal saline intake at 1000 mg/kg, po measured at 5-18 hr after drug administration by standard Lipschitz method (reference value: 2.50 +/-0.036 ml); type: functional
Rattus norvegicus [11] = assay: Induction of diuresis in Rattus norvegicus albino (rat) assessed as total urinary output at 1000 mg/kg, po measured at 5-18 hr after drug administration by standard Lipschitz method (reference value: 1.26 +/-0.049 ml); type: functional, Urine
Rattus norvegicus [12] = assay: Induction of diuresis in Rattus norvegicus albino (rat) assessed as urinary excretion at 1000 mg/kg, po measured at 0-5 hr after drug administration by standard Lipschitz method (reference value: 98.40%); type: functional, Urine
Rattus norvegicus [13] = assay: Induction of diuresis in Rattus norvegicus albino (rat) assessed as urinary Cl- excretion at 1000 mg/kg, po measured at 0-5 hr after drug administration by standard Lipschitz method (reference value: 0.46 +/-0.005 mEq/L); type: functional, Urine
Rattus norvegicus [14] = assay: Induction of diuresis in Rattus norvegicus albino (rat) assessed as urinary K+ excretion at 1000 mg/kg, po measured at 0-5 hr after drug administration by standard Lipschitz method (reference value: 0.46 +/-0.006 mEq/L); type: functional, Urine
Rattus norvegicus [15] = assay: Induction of diuresis in Rattus norvegicus albino (rat) assessed as normal saline intake at 1000 mg/kg, po measured at 0-5 hr after drug administration by standard Lipschitz method (reference value: 2.50 +/-0.036 ml); type: functional
Rattus norvegicus [16] = assay: Induction of diuresis in Rattus norvegicus albino (rat) assessed as total urinary output at 1000 mg/kg, po measured at 0-5 hr after drug administration by standard Lipschitz method (reference value: 2.46 +/-0.125 ml); type: functional, Urine

NC(N)=O [UREA]
Ratio (Rattus norvegicus [1]): 0.93
Ratio (Rattus norvegicus [2]): 4.6
Ratio (Rattus norvegicus [3]): 0.96
Ratio (Rattus norvegicus [4]): 1.9
Activity (Rattus norvegicus [5]): 1.94 mEq/L
Activity (Rattus norvegicus [6]): 2.82 mEq/L
Activity (Rattus norvegicus [7]): 2.82 mEq/L
Activity (Rattus norvegicus [8]): 1.91 mEq/L
Activity (Rattus norvegicus [9]): 230.76%
Activity (Rattus norvegicus [10]): 2.73 mL
Activity (Rattus norvegicus [11]): 6.3 mL
Activity (Rattus norvegicus [12]): 187.91%
Activity (Rattus norvegicus [13]): 0.95 mEq/L
Activity (Rattus norvegicus [14]): 0.94 mEq/L
Activity (Rattus norvegicus [15]): 2.73 mL
Activity (Rattus norvegicus [16]): 5.13 mL
